Assay results published in patent US20240317755A1, “HETEROCYCLIC COMPOUND, AND INTERMEDIATE THEREOF, PREPARATION METHOD THEREFOR AND USE THEREOF” (WUHAN LL SCIENCE AND TECHNOLOGY DEVELOPMENT CO., LTD., priority 2021, published 2024).

How the values were obtained:
[1] = PK study of male SD rats after single intragastric administration (5% solutol); type: in vivo; details: rat, plasma, single PO compound 1-6 100 mg/kg; for AUC(0-inf) / AUC(0-t) / Cmax / MRT last / half-life: male, SD, po, 100 mg/kg
Procedure: Effect Example 2: PK Study of Male SD Rats after Single Intragastric Administration of Compound (Using 5% Solutol as a Solvent)
To explore the time-plasma concentration curves of the compound in the plasma of male rats after single intragastric administration of compound 1 (125 mg/kg) and compound 1-6 (100 mg/kg) of the present disclosure and to obtain PK parameters (Cmax, Tmax, AUClast, AUCinf, T1/2, MRT, etc.) of the rats after single administration of compound 1 and compound 1-6 of the present disclosure.
(§1) Rats: SD rats, SPF grade, 3 males, weight range of 180 to 200 g (source: Beijing Vital River Laboratory Animal Technology Co., Ltd., certificate number: 110011201109106028); • feeding conditions: ordinary animal house feeding, free access to food and water, 3 animals/cage rearing, 12/12 hours light/dark cycle adjustment (7:00 am/7:00 pm), temperature of 23±1° C.
Dispensing: After accurately weighing the compounds in the PO group, 5% solutol of the required volume was added thereto first, vortexed and mixed evenly for 2 min, sonicated for 30 min, stirred for 2 hours until no visible particles were visible to the naked eye, and the drug was administered while stirring, and the middle layer of the drug solution was taken for drug administration.
as §1, with “220” for “180”, “300” for “200”, “SPF (Beijing) Biotechnology” for “Beijing Vital River Laboratory Animal Technology”, “110324200103216838);” for “110011201109106028);”
Dispensing: After accurately weighing compound 1-6 in the PO group, 5% solutol of the required volume was added first, vortexed and mixed evenly for 2 min, sonicated for 30 min, stirred for 3 hours until no visible particles were visible to the naked eye; • the drug solution was prepared and used immediately, and a sample of the drug solution must be retained for analysis, and two samples of 100 μL each of the upper, middle, and lower suspensions were taken and sent for analysis and testing on the same day.
The rats were randomly divided into 3 groups according to body weight, and the specific grouping and administration are as follows:
• 1. The animals in the PO group were fasted overnight with free access to water before administration, and the food was returned 4 hours after administration; • 2. time points for blood sampling: the time points for blood sampling in the PO group were 0.167, 0.5, 1, 2, 3, 4, 6, 9, 12, and 24 hours.
• 1. The animals in the PG group were fasted overnight with free access to water before administration, and the food was returned 4 hours after administration; • 2. time points for blood sampling: the time points for blood sampling in the PG group were 0.167, 0.5, 1, 2, 3, 4, 6, 9, 12, and 24 hours.
After administration to rats, blood was collected from the orbital venous plexus according to the sampling time points. About 0.2 to 0.3 mL of blood was collected at each time point and transferred to an anticoagulant EP tube (containing 4 μL of EDTA-K2, 375 mg/mL). The tube was gently inverted three times and stored in an ice box (not exceeding 30 minutes). After centrifugation at 3500×g for 10 minutes at 4° C., the supernatant was transferred to a labeled EP tube. Hemolysis was observed and recorded, and the sample was sent to bioassay for testing. If the sample could not be analyzed the same day, the sample was stored at −80° C. until further testing (be careful not to perform multiple freezing/thawing processes). […]

[2] = Liver microsome half-life assay, human; type: in vitro ADME; details: human, liver microsomes; 1 mg/mL liver microsomal protein, 37° C.; read-out: Liver microsome T½ (min) Human
Procedure: (§2) The in vitro metabolic stability of the compounds of the present disclosure was determined using warm incubation method of liver microsomes in various species. A proper amount of test compound was added to the liver microsomal reaction system (1 mg/mL liver microsomal protein, 25 U/mL glucose-6-phosphate dehydrogenase, 1 mM NADP, 6 mM D-glucose 6-phosphate, 5 mM MgCl2), and the reaction was started by warm incubation in a water bath at 37° C., then 100 μL of the reaction mixture at each time point was added to a centrifuge tube containing 400 μL of internal standard working solution precooled at 0° C. (containing a solution of 200 ng/mL dexamethasone, diclofenac, tolbutamide, and labetalol in acetonitrile), then the reaction was terminated, centrifuged at 4° C. and 10,000 g for 10 min, and the supernatant was taken into LC-MS for analysis and detection to obtain in vitro metabolic half-lives of the test compounds in liver microsomes of various species.

[3] = Liver microsome half-life assay, rat; type: in vitro ADME; details: liver microsomes, 1 mg/mL liver microsomal protein, 37° C., read-out: Liver microsome T½ (min) Rat
Procedure: as §2

[4] = Liver microsome half-life assay, mouse; type: in vitro ADME; details: liver microsomes, 1 mg/mL liver microsomal protein, 37° C., read-out: Liver microsome T½ (min) Mouse
Procedure: as §2

[5] = Liver microsome half-life assay, monkey; type: in vitro ADME; details: liver microsomes, 1 mg/mL liver microsomal protein, 37° C., read-out: Liver microsome T½ (min) Monkey
Procedure: as §2

[6] = Pharmacokinetic study in mice in vivo (gavage and tail vein injection); details: for AUC(0-t) / Cmax: dose 1 mg/kg
From the text: […] Mouse plasma was collected at a specific time point after administration, and the concentration of the compound in plasma was detected by LC-MS/MS (AB SCIEX Qtrap4500). PK parameters of each compound (WinNonlin V5.2, Pharsight) were statistically analyzed and calculated to reflect the pharmacokinetic properties of the compounds of the present disclosure in mice in vivo.

[7] = analyte compound 1-6, mean value

Question: For `O=C(c1ccc(F)cc1C(F)(F)F)c1cnc2n1CCN(c1cn[nH]c(=O)c1Cl)C2` [Compound 1-6, 4-chloro-5-(3-(4-fluoro-2-(trifluoromethyl)benzoyl)-5,6-dihydroimidazo[1,2-a]pyrazin-7(8H)-yl)pyridazin-3(2H)-one], which AUC(0-inf) ([1]; analyte compound 1-6, animal 4) is on record?
Answer: 14500 ng·h/mL

Question: And the AUC(0-t) ([1]; analyte compound 1-6, animal 4)?
Answer: 13500 ng·h/mL

Question: And the Cmax ([1]; analyte compound 1-6, animal 4)?
Answer: 1210 ng/mL

Question: What about the MRT last ([1]; analyte compound 1-6, animal 4) of the same compound?
Answer: 8.03 h

Question: And the half-life ([1]; analyte compound 1-6, animal 4)?
Answer: 5.95 h

Question: What about the AUC(0-inf) ([1]; analyte compound 1-6, animal 5) of the same compound?
Answer: 11500 ng·h/mL

Question: And the AUC(0-t) ([1]; analyte compound 1-6, animal 5)?
Answer: 11200 ng·h/mL

Question: And the Cmax ([1]; analyte compound 1-6, animal 5)?
Answer: 1290 ng/mL

Question: And the MRT last ([1]; analyte compound 1-6, animal 5)?
Answer: 6.38 h

Question: And the half-life ([1]; analyte compound 1-6, animal 5)?
Answer: 4.09 h

Question: What about the AUC(0-inf) ([1]; analyte compound 1-6, animal 6) of the same compound?
Answer: 27500 ng·h/mL

Question: What about the AUC(0-t) ([1]; analyte compound 1-6, animal 6) of the same compound?
Answer: 18200 ng·h/mL

Question: And the Cmax ([1]; analyte compound 1-6, animal 6)?
Answer: 1150 ng/mL

Question: What about the MRT last ([1]; analyte compound 1-6, animal 6) of the same compound?
Answer: 10 h

Question: What about the half-life ([1]; analyte compound 1-6, animal 6) of the same compound?
Answer: 14.5 h

Question: What about the AUC(0-inf) [1, 7] of the same compound?
Answer: 17800 ng·h/mL

Question: What about the AUC(0-t) [1, 7] of the same compound?
Answer: 14300 ng·h/mL

Question: What about the Cmax [1, 7] of the same compound?
Answer: 1220 ng/mL

Question: What about the MRT last [1, 7] of the same compound?
Answer: 8.15 h

Question: And the half-life [1, 7]?
Answer: 5.02 h

Question: And the Tmax ([1]; analyte compound 1-6, animal 4)?
Answer: 4 h

Question: And the half-life [2]?
Answer: 531 min

Question: And the half-life [3]?
Answer: 174 min

Question: What about the half-life [4] of the same compound?
Answer: 78 min

Question: What about the half-life [5] of the same compound?
Answer: 247 min

Question: What about the AUC(0-t) ([6]; mouse, plasma, iv) of the same compound?
Answer: 1860 ng·h/mL

Question: And the Cmax ([6]; mouse, plasma, iv)?
Answer: 1110 ng/mL

Question: And the bioavailability ([6]; mouse, plasma, po, 1 mg/kg, p.o. vs i.v.)?
Answer: 66.8%

Question: And the AUC(0-t) ([6]; mouse, plasma, po)?
Answer: 1240 ng·h/mL

Question: What about the Cmax ([6]; mouse, plasma, po) of the same compound?
Answer: 422 ng/mL

Question: And the “time of peak plasma concentration” value ([6]; oral administration, 10 mg/kg, previous PK results)?
Answer: 1 h
